ChEMBL document CHEMBL1133498, “QSAR of 1,1'-(1,2-ethylenebisbenzyl)bis(4-substitutedpyridinium) dibromides as choline kinase inhibitors: a different approach for antiproliferative drug design” (Bioorg Med Chem Lett, 2000)

Tested on: HT-29
Test: Compound was tested in vitro for antiproliferative activity against human HT-29 cell line
Format: functional, cell-based

| SMILES | IC50 |
| --- | --- |
| c1cc(C[n+]2ccc(N3CCCCC3)cc2)ccc1CCc1ccc(C[n+]2ccc(N3CCCCC3)cc2)cc1 | 0.4 µM |
| Nc1cc[n+](Cc2ccc(CCc3ccc(C[n+]4ccc(N)cc4)cc3)cc2)cc1 | 4 µM |
| CN(C)c1cc[n+](Cc2ccc(CCc3ccc(C[n+]4ccc(N(C)C)cc4)cc3)cc2)cc1 | 2 µM |
| c1cc(C[n+]2ccc(N3CCCCCC3)cc2)ccc1CCc1ccc(C[n+]2ccc(N3CCCCCC3)cc2)cc1 | 0.4 µM |
| OCc1cc[n+](Cc2ccc(CCc3ccc(C[n+]4ccc(CO)cc4)cc3)cc2)cc1 | > 100 µM |
| O=C(O)c1cc[n+](Cc2ccc(CCc3ccc(C[n+]4ccc(C(=O)O)cc4)cc3)cc2)cc1 | > 1000 µM |
| C=CCN(CC=C)c1cc[n+](Cc2ccc(CCc3ccc(C[n+]4ccc(N(CC=C)CC=C)cc4)cc3)cc2)cc1 | 0.55 µM |
| N#Cc1cc[n+](Cc2ccc(CCc3ccc(C[n+]4ccc(C#N)cc4)cc3)cc2)cc1 | 200 µM |
| Cc1cc[n+](Cc2ccc(CCc3ccc(C[n+]4ccc(C)cc4)cc3)cc2)cc1 | 20 µM |
| c1cc(C[n+]2ccc(N3CCCC3)cc2)ccc1CCc1ccc(C[n+]2ccc(N3CCCC3)cc2)cc1 | 1 µM |
| C[N+]1(C)CCOC(O)(c2ccc(-c3ccc(C4(O)C[N+](C)(C)CCO4)cc3)cc2)C1 (stereo unspecified) [HEMICHOLINIUM-3] | 2500 µM |
